Assay results as given in ChEMBL document CHEMBL3044740, “Syntheses and evaluation of 2,5-disubstituted 4-thiazolidinone analogues as antimicrobial agents” (2012).
Active and inactive are the calls of the source. The rule behind the calls is not given here.

Assays:
Format in all cases: functional
Candida albicans [1] = assay: Antifungal activity against Candida albicans MTCC 227 at 100 ug/ml by cup-plate method; conditions: for zone of inhibition at 100 µg/mL: read-out: DIZ
Pseudomonas aeruginosa [2] = assay: Antibacterial activity against Pseudomonas aeruginosa MTCC 2453 at 300 ug/ml by cup-plate method; conditions: for zone of inhibition at 300 µg/mL: read-out: DIZ
Staphylococcus aureus [3] = assay: Antibacterial activity against Staphylococcus aureus MTCC 96 at 200 ug/ml by cup-plate method; conditions: read-out: DIZ
Bacillus subtilis [4] = assay: Antibacterial activity against Bacillus subtilis MTCC 121 at 100 ug/ml by cup plate method; conditions: read-out: DIZ
Bacillus subtilis [5] = assay: Antibacterial activity against Bacillus subtilis MTCC 121 at 300 ug/ml by cup plate method; conditions: read-out: DIZ
Escherichia coli [6] = assay: Antibacterial activity against Escherichia coli MTCC 739 at 100 ug/ml by cup-plate method; conditions: for zone of inhibition at 100 µg/mL: read-out: DIZ
Escherichia coli [7] = assay: Antibacterial activity against Escherichia coli MTCC 739 at 300 ug/ml by cup-plate method; conditions: for zone of inhibition at 300 µg/mL: read-out: DIZ
Candida albicans [8] = assay: Antifungal activity against Candida albicans MTCC 227 at 50 ug/ml by cup-plate method
Candida albicans [9] = assay: Antifungal activity against Candida albicans MTCC 227 at 200 ug/ml by cup-plate method
Bacillus subtilis [10] = assay: Antibacterial activity against Bacillus subtilis MTCC 121 at 200 ug/ml by cup plate method; conditions: read-out: DIZ
Staphylococcus aureus [11] = assay: Antibacterial activity against Staphylococcus aureus MTCC 96 at 300 ug/ml by cup-plate method; conditions: read-out: DIZ
Staphylococcus aureus [12] = assay: Antibacterial activity against Staphylococcus aureus MTCC 96 at 100 ug/ml by cup-plate method; conditions: read-out: DIZ
Pseudomonas aeruginosa [13] = assay: Antibacterial activity against Pseudomonas aeruginosa MTCC 2453 at 100 ug/ml by cup-plate method; conditions: for zone of inhibition at 100 µg/mL: read-out: DIZ
Escherichia coli [14] = assay: Antibacterial activity against Escherichia coli MTCC 739 at 200 ug/ml by cup-plate method; conditions: for zone of inhibition at 200 µg/mL: read-out: DIZ
Pseudomonas aeruginosa [15] = assay: Antibacterial activity against Pseudomonas aeruginosa MTCC 2453 at 50 ug/ml by cup-plate method; conditions: for zone of inhibition at 50 µg/mL: read-out: DIZ
Pseudomonas aeruginosa [16] = assay: Antibacterial activity against Pseudomonas aeruginosa MTCC 2453 at 200 ug/ml by cup-plate method; conditions: for zone of inhibition at 200 µg/mL: read-out: DIZ
Escherichia coli [17] = assay: Antibacterial activity against Escherichia coli MTCC 739 at 50 ug/ml by cup-plate method; conditions: for zone of inhibition at 50 µg/mL: read-out: DIZ
Bacillus subtilis [18] = assay: Antibacterial activity against Bacillus subtilis MTCC 121 at 50 ug/ml by cup plate method; conditions: read-out: DIZ
Staphylococcus aureus [19] = assay: Antibacterial activity against Staphylococcus aureus MTCC 96 at 50 ug/ml by cup-plate method; conditions: read-out: DIZ
Candida albicans [20] = assay: Antifungal activity against Candida albicans MTCC 227 at 300 ug/ml by cup-plate method

| SMILES | zone of inhibition at 200 µg/mL (Staphylococcus aureus [3]) [mm] | zone of inhibition at 100 µg/mL (Bacillus subtilis [4]) [mm] | zone of inhibition at 300 µg/mL (Bacillus subtilis [5]) [mm] | diameter of the inhibition zone (DIZ) (Candida albicans [8]) | diameter of the inhibition zone (DIZ) (Candida albicans [9]) | zone of inhibition at 200 µg/mL (Bacillus subtilis [10]) [mm] | zone of inhibition at 300 µg/mL (Staphylococcus aureus [11]) [mm] | zone of inhibition at 100 µg/mL (Staphylococcus aureus [12]) [mm] | diameter of the inhibition zone (DIZ) (Candida albicans [1]) | zone of inhibition at 50 µg/mL (Bacillus subtilis [18]) [mm] | zone of inhibition at 50 µg/mL (Staphylococcus aureus [19]) [mm] | diameter of the inhibition zone (DIZ) (Candida albicans [20]) | zone of inhibition at 300 µg/mL (Pseudomonas aeruginosa [2]) [mm] | zone of inhibition at 100 µg/mL (Escherichia coli [6]) [mm] | zone of inhibition at 300 µg/mL (Escherichia coli [7]) [mm] | zone of inhibition at 100 µg/mL (Pseudomonas aeruginosa [13]) [mm] | zone of inhibition at 200 µg/mL (Escherichia coli [14]) [mm] | zone of inhibition at 50 µg/mL (Pseudomonas aeruginosa [15]) [mm] | zone of inhibition at 200 µg/mL (Pseudomonas aeruginosa [16]) [mm] | zone of inhibition at 50 µg/mL (Escherichia coli [17]) [mm] | other results |
| --- | --- | --- | --- | --- | --- | --- | --- | --- | --- | --- | --- | --- | --- | --- | --- | --- | --- | --- | --- | --- | --- |
| OC(Cn1cncn1)(Cn1cncn1)c1ccc(F)cc1F [FLUCONAZOLE] |  |  |  |  |  |  |  |  |  |  |  |  |  |  |  |  |  |  |  |  | zone of inhibition at 100 µg/mL (Candida albicans [1]): 35 mm |
| COc1cc(/C=C2\S/C(=N/c3ccccc3[N+](=O)[O-])NC2=O)ccc1O | 8 | 8 | 12 | inactive | inactive | 10 | 8 | 8 | inactive | 8 | 7 | inactive |  |  |  |  |  |  |  |  | diameter of the inhibition zone (DIZ) (Pseudomonas aeruginosa [2]): inactive; diameter of the inhibition zone (DIZ) (Escherichia coli [6]): inactive; diameter of the inhibition zone (DIZ) (Escherichia coli [7]): inactive; diameter of the inhibition zone (DIZ) (Pseudomonas aeruginosa [13]): inactive; diameter of the inhibition zone (DIZ) (Escherichia coli [14]): inactive; diameter of the inhibition zone (DIZ) (Pseudomonas aeruginosa [15]): inactive; diameter of the inhibition zone (DIZ) (Pseudomonas aeruginosa [16]): inactive; diameter of the inhibition zone (DIZ) (Escherichia coli [17]): inactive |
| O=C1N/C(=N\c2ccc([N+](=O)[O-])cc2)S/C1=C\c1ccc(Cl)cc1 | 15 | 16 | 18 | inactive | inactive | 17 | 17 | 14 | inactive | 15 | 13 | inactive | 14 | 16 | 18 | 12 | 16 | 11 | 13 | 15 |  |
| O=C1N/C(=N\c2ccc([N+](=O)[O-])cc2)S/C1=C\c1ccc(O)cc1 | 13 | 12 | 15 | inactive | inactive | 14 | 15 | 12 | inactive | 11 | 11 | inactive | 12 | 12 | 15 | 11 | 13 | 10 | 11 | 11 |  |
| O=C(O)c1cn(C2CC2)c2cc(N3CCNCC3)c(F)cc2c1=O [CIPROFLOXACIN] |  | 22 |  |  |  |  |  | 19 | inactive |  |  |  |  | 28 |  | 18 |  |  |  |  |  |
| COc1cc(/C=C2\S/C(=N/c3ccc([N+](=O)[O-])cc3)NC2=O)ccc1O | 16 | 12 | 15 | inactive | inactive | 14 | 17 | 15 | inactive | 11 | 14 | inactive | 17 | 12 | 13 | 15 | 12 | 14 | 15 | 11 |  |
| O=C1N/C(=N\c2ccccc2[N+](=O)[O-])S/C1=C\c1ccccc1 | 12 | 10 | 13 |  |  | 11 | 15 | 11 |  | 8 | 10 |  | 10 | 8 | 12 | 6 | 10 | 6 | 8 | 7 | zone of inhibition at 50 µg/mL (Candida albicans [8]; read-out: DIZ): 10 mm; zone of inhibition at 200 µg/mL (Candida albicans [9]; read-out: DIZ): 13 mm; zone of inhibition at 100 µg/mL (Candida albicans [1]): 11 mm; zone of inhibition at 300 µg/mL (Candida albicans [20]; read-out: DIZ): 18 mm |
| O=C1N/C(=N\c2ccc([N+](=O)[O-])cc2)S/C1=C\c1ccccc1 | 14 | 12 | 15 | inactive | inactive | 13 | 16 | 13 | inactive | 11 | 12 | inactive | 13 | 12 | 15 | 10 | 13 | 10 | 11 | 11 |  |
| O=C1N/C(=N\c2ccccc2[N+](=O)[O-])S/C1=C\c1ccc(O)cc1 | 10 | 10 | 11 | inactive | inactive | 10 | 11 | 10 | inactive | 10 | 10 | inactive |  |  |  |  |  |  |  |  | diameter of the inhibition zone (DIZ) (Pseudomonas aeruginosa [2]): inactive; diameter of the inhibition zone (DIZ) (Escherichia coli [6]): inactive; diameter of the inhibition zone (DIZ) (Escherichia coli [7]): inactive; diameter of the inhibition zone (DIZ) (Pseudomonas aeruginosa [13]): inactive; diameter of the inhibition zone (DIZ) (Escherichia coli [14]): inactive; diameter of the inhibition zone (DIZ) (Pseudomonas aeruginosa [15]): inactive; diameter of the inhibition zone (DIZ) (Pseudomonas aeruginosa [16]): inactive; diameter of the inhibition zone (DIZ) (Escherichia coli [17]): inactive |
| O=C1N/C(=N\c2ccc([N+](=O)[O-])cc2)S/C1=C\c1cccc([N+](=O)[O-])c1 | 16 | 12 | 15 | inactive | inactive | 13 | 17 | 15 | inactive | 11 | 11 | inactive | 12 | 11 | 12 | 11 | 12 | 10 | 12 | 11 |  |
| O=C1N/C(=N\c2ccc([N+](=O)[O-])cc2)S/C1=C\c1ccccc1Cl | 17 | 14 | 17 | inactive | inactive | 15 | 19 | 16 | inactive | 13 | 15 | inactive | 17 | 14 | 16 | 14 | 15 | 13 | 16 | 13 |  |
| O=C1N/C(=N\c2ccc([N+](=O)[O-])cc2)S/C1=C\c1ccccc1[N+](=O)[O-] | 16 | 12 | 15 | inactive | inactive | 13 | 17 | 15 | inactive | 11 | 11 | inactive | 12 | 11 | 12 | 11 | 12 | 10 | 12 | 11 |  |
